Legend:
primary osteoblasts [1] = assay: Proliferation assay on primary osteoblasts ([3H]thymidine or BrdU incorporation); assay type: cell-based; conditions: primary osteoblasts from fetal rat calvarias; serum-free medium with 1 mg/ml BSA; established for both native and synthetic peptide
Experimental: The isolation of OB-CDGF was based on its biological activity in a proliferation assay of the primary osteoblasts. Thus, aliquots of each of the individual chromatographic stages described under Example 1 were freeze-dried and then subjected to a biological assay. The fractions which gave a positive signal were respectively subjected to further purification.
The assay measures the proliferation of the cells after having been kept in serum-free medium with 1 mg/ml bovine serum albumin, adding the samples and determining the incorporation of [^3H]thymidine or bromode-oxyuranosine (Brdu) after a further 48 hours. As a positive control, factors promoting bone growth, such as IGF or angiotensin, or fetal calf serum (FCS) are employed.
The experiments were performed by analogy with Pfeilschifter et al., Endocrinology 126, 703, 1990.
The recovery of primary osteoblasts was effected by sequential digestive separation from fetal rat calvarias using collagenase to obtain 5 cell fractions. The pooled cell fractions 3-5 were cultured in vitro. […]
At the end of the incubation time, the cell cultures were washed three times with 0.9% saline, and then 100 μl of liquid scintillator (OptiPhase Super-mix®, Wallac) was added to each well. Subsequently, the radioactivity incorporated in the DNA was measured in a liquid scintillation counter (1450 MicroBeta®, Wallac) in cpm. […]

[2] = tested on: neonatal rat osteoblast monolayers; assay: Binding assay of 125I-labeled OB-CDGF to osteoblasts; conditions: confluent layers and extracellular matrix of neonatal rat osteoblasts; 2 hours at 4° C.; FIG. 5
Experimental: The binding of the osteoproliferative peptides to neonatal rat osteoblast monolayers was effected with the use of ^125j-labeled peptides. Chloramine T was used for iodination. The specific activity of the peptides was 100,000 cpm/ng. The binding studies were performed on confluent layers and the extracellular matrix of a first passage of neonatal rat osteoblasts. The cells were incubated for 24 hours in serum-containing medium and then washed four times with PBS and incubated for 2 hoursat 4° C. in 250 μl of the assay buffer (20 mM HEPES, 0.1 mg/ml BSA, pH 7.0) with 80,000 cpm of the iodine-labeled peptide in the presence of different concentrations of the unlabeled peptide. The incubation buffer was then removed, and the cells washed four times with cold PBS and solubilized with 1 M NaOH. The cell-bound activity was determined using a gamma counter. The corresponding experimental results are represented in FIG. 5.

primary osteoblasts [3] = assay: Intracellular calcium release in primary osteoblasts (Fura-2); assay type: cell-based, rat; conditions: single primary osteoblasts, Fura-2, fluorescence microscope; FIG. 6
Experimental: The intracellular signal chain for calcium^2+is measured on individual osteoblast cells. The intracellular Ca^2+activity of primary osteoblasts is measured with the Ca^2+-sensitive dye Fura-2 (Calbiochem, Bad Soden, Germany). The primary osteoblasts are cultured for one to three days on glass supports (diameter 30 mm) attached to a perfusion chamber of an inverted microscope (Axiomat IDC-UV, Zeiss, Gottingen, Germany). […]
The incubation is followed by an equilibration period of 10 to 15 min in which the cells are washed with KHB solution at 37° C. with a perfusion rate of about 5 ml/min. The Fura-2-charged primary osteoblasts are measured at 340, 360 and 380 nm with a high speed filter wheel (rotational speed 10 Hertz), a single-photon counter tube (Hamamatsu, Herrsching, Germany) and a xenon quartz lamp (XBO 75 W/OFR, Zeiss, Germany) as a light/impulse source. The Fura-2 emission is measured through a long-wave filter at 510 nm with an Ultrafluar 125 ×glycerol immersion lens. […] The ratio of photon emissions upon excitation at 340 and 380 nm is evaluated. […] The raw data are calculated, and 10 neighboring data points are averaged to obtain a time resolution of 1 Hz. The fluorescence at 360 nm is used to test calcium activity. All samples are dissolved in a phosphate buffer prior to the experiment and measured for at least 1 to 2 minutes. […]

MAP kinase = assay: Western blot detection of intracellular MAP kinase in primary osteoblasts; assay type: cell-based, rat; conditions: primary osteoblasts incubated for different periods of time; FIG. 7
Experimental: As already shown under Example 5, intracellular calcium release can be induced on primary osteoblasts by incubation with CDGF. To further characterize this physiological response, the further intracellular signal pathway (downstream from calcium) was examined. One possible signal transduction cascade is the activation of MAP kinase, an enzyme which plays an essential role in the signal transduction from the cytoplasm into the nucleus. Signal transmission involves phosphorylation of the enzyme which can be detected with a specific antibody. Thus, this protein can be detected in a Western blot, which is a measure of both the phosphorylation and the expression due to the stimulus. Primary osteoblasts were incubated with cadherin or controls (FCS) for different periods of time. Expression of the enzyme (MAP kinase) in the cell was detected in the Western blot by the addition of the antibody. The results are represented in FIG. 7. […] The longer the stimulation with OB-CDGF, the more clearly could the band be discerned. […] Therefrom, it can be concluded that CDGF acts through calcium in a receptor-mediated way, and the further signal processing proceeds via MAP kinase.

[4] = tested on: primary cultures of neurons from spinal ganglia of chicken embryos; assay: Survival-promoting effect on primary nerve cell cultures (cellular LDH level); assay type: cell-based; conditions: neurons from spinal ganglia of chicken embryos (E10); cellular LDH level after 48 hours
Experimental: Primary Nerve Cell Cultures From Spinal Ganglia of Chicken Embryos (Embryo-Onal Development E10)
The preparation and cultivation is performed as described by Borasio G. D., John J., Wittinghofer A., Barde Y.-A., Sendtner M., Heumann R. (1989), Neuron 2, 1087-1096. To determine survival-promoting effects of active substances, determination of the cellular LDH level after an incubation time of 48 hours is employed. To this end, the culture medium is removed by tapping out the plate. Only the vital cells remain adhered to the bottom of the plate and can then be determined. To determine the LDH level, the LDH cytotoxicity test kit of Boehringer Mannheim (BM) is employed.
The cultures were used in duplicate in 96-well microtitration plates. On each plate, an NGF calibration curve is established in parallel, and the biological activity of the substances is expressed in pg/ml of NGF equivalents. As a low-molecular weight reference, the starurosporin derivative K252a is used in a parallel test in a concentration of 300 nmol/l.

Sequence | growth-promoting effect on primary osteoblasts (proliferation) (primary osteoblasts [1]) | displacement of labeled OB-CDGF by unlabeled OB-CDGF (specific binding) [2] | intracellular calcium concentration (primary osteoblasts [3]) | expression of intracellular MAP kinase (Western blot band) (MAP kinase) | survival-promoting effect on primary neurons [4]
ERRGHLRPSFHGHHEKGKEGQVLQRS (listed as Homo sapiens) [OB-CDGF, peptide purified from human hemofiltrate and resynthesized; human cadherin-11 precursor propeptide, amino acids 26-51] | dose-dependent growth-promoting effect | the level of specifically bound labeled OB-CDGF is reduced | intracellular calcium concentration increases | leads to expression of intracellular MAP kinase | 
QPQPQQTLATEPRENVIHLPGQRSHFQRV (listed as Homo sapiens) [BR-CDGF, peptide corresponding to the CDGF region of cadherin-12 (BR-cadherin; N-cadherin-2)] |  |  |  |  | survival-promoting effect on these primary neurons in a concentration-dependent way
TLSTPLSKRTSGFPAKKRALELSGNSKNELNRS (listed as Homo sapiens) [CAD6-CDGF, peptide corresponding to the CDGF region of cadherin-6] |  |  |  |  | survival-promoting effect on these primary neurons in a concentration-dependent way

— patent US6809175B1, “Cadherin derived growth factor and its use” (Prof. Dr. Wolf-Georg Forssmann, priority 1997, dated 2004)
